Data reported in ChEMBL document CHEMBL1151840, “Synthetic oligoribonucleotides containing arabinonucleotides act as agonists of TLR7 and 8” (Bioorg Med Chem Lett, 2009).

Tested on: Serum
Test: Stability in human serum assessed as full-length compound remaining after 10 mins by anion-exchange HPLC
Format: ADME, cell-free
Details: 10 min

Stability: 75%
Compound: Nc1ccn([C@@H]2O[C@H](COP(=O)(S)O[C@H]3[C@@H](O)[C@H](n4cnc5c(N)ncnc54)O[C@@H]3COP(=O)(S)O[C@H]3[C@@H](O)[C@H](n4cnc5c(=O)[nH]c(N)nc54)O[C@@H]3COP(=O)(S)O[C@H]3[C@@H](O)[C@H](n4ccc(=O)[nH]c4=O)O[C@@H]3COP(=O)(S)O[C@H]3[C@@H](O)[C@H](n4cnc5c(=O)[nH]c(N)nc54)O[C@@H]3COP(=O)(S)O[C@H]3[C@@H](O)[C@H](n4ccc(=O)[nH]c4=O)O[C@@H]3COP(=O)(S)O[C@H]3[C@@H](O)[C@H](n4cnc5c(=O)[nH]c(N)nc54)O[C@@H]3COP(=O)(S)O[C@H]3[C@@H](O)[C@H](n4ccc(=O)[nH]c4=O)O[C@@H]3COP(=O)(S)O[C@H]3[C@@H](O)[C@H](n4ccc(=O)[nH]c4=O)O[C@@H]3COP(=O)(S)O[C@H]3[C@@H](O)[C@H](n4cnc5c(=O)[nH]c(N)nc54)O[C@@H]3COP(=O)(S)O[C@H]3[C@@H](O)[C@H](n4ccc(=O)[nH]c4=O)O[C@H]3CO)[C@@H](OP(=O)(S)OCC(O)COP(=O)(S)O[C@H]3[C@@H](O)[C@H](n4ccc(N)nc4=O)O[C@@H]3COP(=O)(S)O[C@H]3[C@@H](O)[C@H](n4cnc5c(N)ncnc54)O[C@@H]3COP(=O)(S)O[C@H]3[C@@H](O)[C@H](n4cnc5c(=O)[nH]c(N)nc54)O[C@@H]3COP(=O)(S)O[C@H]3[C@@H](O)[C@H](n4ccc(=O)[nH]c4=O)O[C@@H]3COP(=O)(S)O[C@H]3[C@@H](O)[C@H](n4cnc5c(=O)[nH]c(N)nc54)O[C@@H]3COP(=O)(S)O[C@H]3[C@@H](O)[C@H](n4ccc(=O)[nH]c4=O)O[C@@H]3COP(=O)(S)O[C@H]3[C@@H](O)[C@H](n4cnc5c(=O)[nH]c(N)nc54)O[C@@H]3COP(=O)(S)O[C@H]3[C@@H](O)[C@H](n4ccc(=O)[nH]c4=O)O[C@@H]3COP(=O)(S)O[C@H]3[C@@H](O)[C@H](n4ccc(=O)[nH]c4=O)O[C@@H]3COP(=O)(S)O[C@H]3[C@@H](O)[C@H](n4cnc5c(=O)[nH]c(N)nc54)O[C@@H]3COP(=O)(S)O[C@H]3[C@@H](O)[C@H](n4ccc(=O)[nH]c4=O)O[C@@H]3CO)[C@H]2O)c(=O)n1 (stereo in doubt; 5)
